ChEMBL document CHEMBL3885881, “DrugMatrix”

Species on record: Rattus norvegicus
Experiment: DrugMatrix - Regimen: Daily Repeat
Assay type: toxicity, organism-based, Sprague-Dawley
Parameters: regimen Daily Repeat, gender Male, age 6-8 weeks
Conditions: in vivo, sc, route subcutaneous, […]; for ABSOLUTE BASOPHIL / ABSOLUTE EOSINOPHIL / ABSOLUTE LYMPHOCYTE / ABSOLUTE MONOCYTE / ABSOLUTE SEGMENTED NEUTROPHIL / BASOPHIL / EOSINOPHIL / ERYTHROCYTE COUNT / HEMATOCRIT / HEMOGLOBIN / LEUKOCYTE COUNT / LYMPHOCYTE / MEAN CORPUSCULAR HEMOGLOBIN / MEAN CORPUSCULAR HEMOGLOBIN CONCENTRATION / MEAN CORPUSCULAR VOLUME / MONOCYTE / NEUTROPHIL / NUCLEATED RED BLOOD CELLS / PLATELET COUNT: tissue Blood; for ALANINE AMINOTRANSFERASE / ALBUMIN / ALKALINE PHOSPHATASE / ASPARTATE AMINOTRANSFERASE / BLOOD UREA NITROGEN / CARBON DIOXIDE / CHLORIDE / CHOLESTEROL / CREATINE PHOSPHOKINASE / CREATININE / GLUCOSE / LACTATE DEHYDROGENASE / LIPASE / PHOSPHORUS / POTASSIUM / SODIUM / TOTAL BILIRUBIN / TOTAL PROTEIN / URIC ACID: tissue Plasma
[1] = 3 mg/kg, 72 h, dose level Low, time 3 day
[2] = 3 mg/kg, 120 h, dose level Low, time 5 day
[3] = 1500 mg/kg, 72 h, dose level High, time 3 day
[4] = 1500 mg/kg, 120 h, dose level High, time 5 day

Clc1ccc(CO/N=C(\Cn2ccnc2)c2ccc(Cl)cc2Cl)c(Cl)c1 [OXICONAZOLE]
ABSOLUTE BASOPHIL [1]: 0 CELLS/uL | ABSOLUTE EOSINOPHIL [1]: 0 CELLS/uL | ABSOLUTE LYMPHOCYTE [1]: 11885.67 CELLS/uL | ABSOLUTE MONOCYTE [1]: 211.33 CELLS/uL | ABSOLUTE SEGMENTED NEUTROPHIL [1]: 736.33 CELLS/uL | BASOPHIL [1]: 0% | EOSINOPHIL [1]: 0% | ERYTHROCYTE COUNT [1]: 5.9 x10E6/uL | HEMATOCRIT [1]: 37.23% | HEMOGLOBIN [1]: 14.13 G/DL | LEUKOCYTE COUNT [1]: 12.83 x10E3/uL | LYMPHOCYTE [1]: 92.33% | MEAN CORPUSCULAR HEMOGLOBIN [1]: 24 pg | MEAN CORPUSCULAR HEMOGLOBIN CONCENTRATION [1]: 38 G/DL | MEAN CORPUSCULAR VOLUME [1]: 63.17 fL | MONOCYTE [1]: 1.67% | NEUTROPHIL [1]: 6% | NUCLEATED RED BLOOD CELLS [1]: 0 /100WBC | PLATELET COUNT [1]: 1370 x10E3/uL | ALANINE AMINOTRANSFERASE [1]: 44 u/L | ALBUMIN [1]: 4.63 G/DL | ALKALINE PHOSPHATASE [1]: 333.33 u/L | ASPARTATE AMINOTRANSFERASE [1]: 101.67 u/L | BLOOD UREA NITROGEN [1]: 18.33 mg/dL | CARBON DIOXIDE [1]: 21.33 mmol/L | CHLORIDE [1]: 96 MEQ/L | CHOLESTEROL [1]: 92.67 mg/dL | CREATINE PHOSPHOKINASE [1]: 602 u/L | CREATININE [1]: 0.2 mg/dL | GLUCOSE [1]: 137 mg/dL | LACTATE DEHYDROGENASE [1]: 701 u/L | LIPASE [1]: 10 u/L | PHOSPHORUS [1]: 12.9 mg/dL | POTASSIUM [1]: 6.82 MEQ/L | SODIUM [1]: 140.17 MEQ/L | TOTAL BILIRUBIN [1]: 0.17 mg/dL | TOTAL PROTEIN [1]: 6.4 G/DL | URIC ACID [1]: 1.77 mg/dL | ABSOLUTE BASOPHIL [2]: 0 CELLS/uL | ABSOLUTE EOSINOPHIL [2]: 80 CELLS/uL | ABSOLUTE LYMPHOCYTE [2]: 13140 CELLS/uL | ABSOLUTE MONOCYTE [2]: 187.67 CELLS/uL | ABSOLUTE SEGMENTED NEUTROPHIL [2]: 1059 CELLS/uL | BASOPHIL [2]: 0% | EOSINOPHIL [2]: 0.67% | ERYTHROCYTE COUNT [2]: 5.43 x10E6/uL | HEMATOCRIT [2]: 34.63% | HEMOGLOBIN [2]: 13.57 G/DL | LEUKOCYTE COUNT [2]: 14.47 x10E3/uL | LYMPHOCYTE [2]: 91% | MEAN CORPUSCULAR HEMOGLOBIN [2]: 25 pg | MEAN CORPUSCULAR HEMOGLOBIN CONCENTRATION [2]: 39.17 G/DL | MEAN CORPUSCULAR VOLUME [2]: 63.83 fL | MONOCYTE [2]: 1.33% | NEUTROPHIL [2]: 7% | NUCLEATED RED BLOOD CELLS [2]: 0 /100WBC | PLATELET COUNT [2]: 1246.67 x10E3/uL | ALANINE AMINOTRANSFERASE [2]: 45.67 u/L | ALBUMIN [2]: 4.03 G/DL | ALKALINE PHOSPHATASE [2]: 333 u/L | ASPARTATE AMINOTRANSFERASE [2]: 70.33 u/L | BLOOD UREA NITROGEN [2]: 14 mg/dL | CARBON DIOXIDE [2]: 27.33 mmol/L | CHLORIDE [2]: 101 MEQ/L | CHOLESTEROL [2]: 71.33 mg/dL | CREATINE PHOSPHOKINASE [2]: 209.67 u/L | CREATININE [2]: 0.12 mg/dL | GLUCOSE [2]: 150 mg/dL | LACTATE DEHYDROGENASE [2]: 187.33 u/L | LIPASE [2]: 8.67 u/L | PHOSPHORUS [2]: 11 mg/dL | POTASSIUM [2]: 6.62 MEQ/L | SODIUM [2]: 144.57 MEQ/L | TOTAL BILIRUBIN [2]: 0.23 mg/dL | TOTAL PROTEIN [2]: 5.9 G/DL | URIC ACID [2]: 1.23 mg/dL | ABSOLUTE BASOPHIL [3]: 0 CELLS/uL | ABSOLUTE EOSINOPHIL [3]: 0 CELLS/uL | ABSOLUTE LYMPHOCYTE [3]: 11731.33 CELLS/uL | ABSOLUTE MONOCYTE [3]: 603.33 CELLS/uL | ABSOLUTE SEGMENTED NEUTROPHIL [3]: 4732 CELLS/uL | BASOPHIL [3]: 0% | EOSINOPHIL [3]: 0% | ERYTHROCYTE COUNT [3]: 4.99 x10E6/uL | HEMATOCRIT [3]: 31.07% | HEMOGLOBIN [3]: 12.4 G/DL | LEUKOCYTE COUNT [3]: 17.07 x10E3/uL | LYMPHOCYTE [3]: 69.67% | MEAN CORPUSCULAR HEMOGLOBIN [3]: 24.97 pg | MEAN CORPUSCULAR HEMOGLOBIN CONCENTRATION [3]: 39.93 G/DL | MEAN CORPUSCULAR VOLUME [3]: 62.43 fL | MONOCYTE [3]: 3.67% | NEUTROPHIL [3]: 26.67% | NUCLEATED RED BLOOD CELLS [3]: 0 /100WBC | PLATELET COUNT [3]: 1249.67 x10E3/uL | ALANINE AMINOTRANSFERASE [3]: 40.33 u/L | ALBUMIN [3]: 3.03 G/DL | ALKALINE PHOSPHATASE [3]: 327 u/L | ASPARTATE AMINOTRANSFERASE [3]: 65.67 u/L | BLOOD UREA NITROGEN [3]: 12.33 mg/dL | CARBON DIOXIDE [3]: 22.33 mmol/L | CHLORIDE [3]: 98.67 MEQ/L | CHOLESTEROL [3]: 62.67 mg/dL | CREATINE PHOSPHOKINASE [3]: 173 u/L | CREATININE [3]: 0.17 mg/dL | GLUCOSE [3]: 131 mg/dL | LACTATE DEHYDROGENASE [3]: 217 u/L | LIPASE [3]: 9 u/L | PHOSPHORUS [3]: 12.47 mg/dL | POTASSIUM [3]: 6.61 MEQ/L | SODIUM [3]: 143.17 MEQ/L | TOTAL BILIRUBIN [3]: 0.1 mg/dL | TOTAL PROTEIN [3]: 6.03 G/DL | URIC ACID [3]: 1.7 mg/dL | ABSOLUTE BASOPHIL [4]: 0 CELLS/uL | ABSOLUTE EOSINOPHIL [4]: 0 CELLS/uL | ABSOLUTE LYMPHOCYTE [4]: 17693 CELLS/uL | ABSOLUTE MONOCYTE [4]: 655 CELLS/uL | ABSOLUTE SEGMENTED NEUTROPHIL [4]: 5318.67 CELLS/uL | BASOPHIL [4]: 0% | EOSINOPHIL [4]: 0% | ERYTHROCYTE COUNT [4]: 5.09 x10E6/uL | HEMATOCRIT [4]: 30.4% | HEMOGLOBIN [4]: 12.37 G/DL | LEUKOCYTE COUNT [4]: 23.67 x10E3/uL | LYMPHOCYTE [4]: 76.67% | MEAN CORPUSCULAR HEMOGLOBIN [4]: 24.3 pg | MEAN CORPUSCULAR HEMOGLOBIN CONCENTRATION [4]: 40.7 G/DL | MEAN CORPUSCULAR VOLUME [4]: 59.73 fL | MONOCYTE [4]: 3% | NEUTROPHIL [4]: 20.33% | NUCLEATED RED BLOOD CELLS [4]: 0.33 /100WBC | PLATELET COUNT [4]: 1767.33 x10E3/uL | ALANINE AMINOTRANSFERASE [4]: 33.33 u/L | ALBUMIN [4]: 2.7 G/DL | ALKALINE PHOSPHATASE [4]: 254.33 u/L | ASPARTATE AMINOTRANSFERASE [4]: 66.33 u/L | BLOOD UREA NITROGEN [4]: 16.67 mg/dL | CARBON DIOXIDE [4]: 24.33 mmol/L | CHLORIDE [4]: 103.33 MEQ/L | CHOLESTEROL [4]: 55.67 mg/dL | CREATINE PHOSPHOKINASE [4]: 192.33 u/L | CREATININE [4]: 0.13 mg/dL | GLUCOSE [4]: 142.33 mg/dL | LACTATE DEHYDROGENASE [4]: 225.33 u/L | LIPASE [4]: 7.67 u/L | PHOSPHORUS [4]: 11.27 mg/dL | POTASSIUM [4]: 6.81 MEQ/L | SODIUM [4]: 144.57 MEQ/L | TOTAL BILIRUBIN [4]: 0.1 mg/dL | TOTAL PROTEIN [4]: 5.87 G/DL | URIC ACID [4]: 1.87 mg/dL
